Results: PMC10473914, “Phosphorylation of Ack1 by the Receptor Tyrosine Kinase Mer” (Kinases and phosphatases, 2023)
“Also recorded” adds a separate entry of the source. Where a SMILES comes first, the peptide text is derived from it. [ ]: non-standard residue; d: D form. The star is where a group is joined. FITC = O=C1OC2(c3ccc(O)cc3Oc3cc(O)ccc32)c2ccc(NC(=S)*)cc21; pY = N[C@@H](Cc1ccc(OP(=O)(O)O)cc1)C(=O)O

Key:
macrophages = conditions: cited from earlier work
Text: (§1) Gene expression studies in colon cancer patients have shown a correlation between Ack1 expression and the extent of immune cell infiltration. Ack1 is required for apoptosis induced by TRAIL, an apoptosis-promoting factor [25], and dysregulation of Ack1 is linked to abnormal apoptotic activity. Ack1 promotes the activation of the Toll-like receptor (TLR) family members TLR4, TLR7, and TLR9 in macrophages and dendritic cells. A small molecule inhibitor of Ack1 (AIM-100) re ...

Ack1 = conditions: mice treated with a TLR7 ligand; cited from earlier work
Text: as §1, with “It is increasingly clear that Mer plays a crucial role in the macrophage-mediated phagocytosis of apoptotic cells. […] Gas6 has a Gla domain at its N-terminus and binds to Mer and other TAMs to promote tyrosine kinase activity. […] Gene” for “Gene”

Mer kinase domain = target: T1, Mer kinase domain (Homo sapiens, UniProt Q12866); assay: Fluorescence polarization binding of fluorescein-labeled phosphopeptides to Mer kinase domain
T1 construct: His tag; host or cells: E. coli YGT cells co-expressing YopH tyrosine phosphatase and GroEL
T1 sequence (Q12866 587-858 limits assumed): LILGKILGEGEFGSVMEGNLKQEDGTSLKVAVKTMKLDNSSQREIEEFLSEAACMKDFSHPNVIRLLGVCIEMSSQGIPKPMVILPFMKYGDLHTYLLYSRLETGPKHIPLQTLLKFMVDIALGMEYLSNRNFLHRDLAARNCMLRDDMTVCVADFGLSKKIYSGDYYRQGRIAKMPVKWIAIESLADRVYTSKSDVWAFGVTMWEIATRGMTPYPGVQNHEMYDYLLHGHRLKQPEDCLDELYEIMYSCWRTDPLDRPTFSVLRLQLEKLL
Method: (§2) Figure 4. Ack1 MHR-derived peptides. (A) Position of the MHR domain in Ack1. The expanded sequences show an alignment between Mig6 and the MHR of Ack1, with Y859–Y860 in yellow. Asterisks indicate conserved residues. (B) Phosphorylation of MHR-derived peptides (100 μM) by Mer was measured using the phosphocellulose paper binding assay (SEM error bars). (C) Binding of fluorescein-labeled pY860 peptide to Mer kinase domain was measured by fluorescence polarization.
To confirm the interaction between pY860 and Mer, we attached fluorescein to the N-terminus of peptide pY860 and measured fluorescence polarization in the presence of increasing concentrations of Mer catalytic domain (Figure 4C).
Phosphotyrosine-containing peptides were fluorescently labeled by reaction with fluorescein isothiocyanate (5 molar equivalents) in 100 mM potassium phosphate buffer (pH 7.0) for 1 h at room temperature. The fluorescent peptides were purified by gel filtration chromatography on G15 Sephadex. Fluorescence polarization was measured in a Wallac1420 Victor2 instrument using 96-well half area black plates (Thermo Fisher, Waltham, MA, USA). The excitation filter was 485 nm, and the emission filter was 535 nm. Measurements were performed in volumes of 50 μL using a buffer of 50 mM Tris (pH 7.4), with peptide concentrations of 0.25 μM or 0.5 μM. The data were analyzed with Origin software (Origin v.7).

[1] = target: fluorescein-labeled Ack1 MHR peptide pY860; assay: fluorescence polarisation; fluorescein-labelled phosphopeptide at 0.25 or 0.5 uM, increasing concentrations of Mer catalytic domain; 50 mM Tris pH 7.4, 50 uL; apparent Kd
Mer kinase = assay: Phosphocellulose paper binding assay: phosphorylation of MHR-derived peptides by Mer; type: biochemical, human; conditions: peptide 100 μM; [γ-32P]ATP; purified Mer kinase domain; 30 °C
Method: as §2
For IP-kinase assays, cell lysates (1 mg protein) were incubated with 30 μL of EZview red anti-FLAG M2 affinity resin at 4 °C for 4 h-overnight, then washed three times with Tris-buffered saline. A portion of each sample was eluted with SDS-PAGE sample buffer and analyzed by anti-Flag Western blotting. […]
Synthetic peptides and phosphopeptides were purchased from Genemed Synthesis Inc., San Antonio, TX, USA and were purified by semipreparative HPLC on a Vydac C18 column. Peptide phosphorylation was measured using the phosphocellulose paper binding assay with [γ-^32P] […] In this assay, the production of ADP was coupled to the oxidation of NADH, which was measured as a reduction in absorbance at 340 nm. […] Absorbance data were recorded every 8 s. Kinetic constants were determined by nonlinear fitting to the initial velocity vs. (substrate) curves using GraphPad Prism, San Diego, CA, USA (v.9).

Molecule: c1ccc(-c2oc3ncnc(NC[C@@H]4CCCO4)c3c2-c2ccccc2)cc1 [AIM-100]
- Effect on TLR-mediated activation of macrophages (macrophages): reduced
- Effect on lupus symptoms / lupus-like phenotype (Ack1): mitigated the lupus symptoms; also recorded: diminishing the lupus-like phenotype

Molecule: CC(C)C[C@H](NC(=O)[C@H](Cc1ccc(OP(=O)(O)O)cc1)NC(=O)[C@H](Cc1ccc(O)cc1)NC(=O)[C@H](Cc1c[nH]cn1)NC(=O)[C@@H](NC(=O)[C@H](CO)NC(=O)[C@H](CO)NC(=O)[C@@H](NC(=O)[C@H](CCCCN)NC(=O)[C@H](CCCCN)NC(=O)CNC(=O)[C@H](CC(=O)O)NC(=O)[C@H](CCCNC(=N)N)NC(=S)Nc1ccc2c(c1)C(=O)OC21c2ccc(O)cc2Oc2cc(O)ccc21)C(C)C)[C@@H](C)O)C(=O)N[C@@H](CC(C)C)C(=O)N1CCC[C@H]1C(=O)N[C@@H](CCC(=O)O)C(=O)O [pY860] ({FITC}-RDGKKVSSTHY[pY]LLPE-OH)
- Kd (Mer kinase domain): 5.4 µM

Molecule: His-tagged Mer kinase domain (from UniProt Q12866 587-858) (domain or fragment)
- Kd [1]: 5.4 µM

Molecule: RDGKKVSSTHpYYLLPE [pY859, Ack1 MHR-derived phosphopeptide containing phosphorylated Y859]
- Binding of peptide to Mer (fluorescence polarization) (Mer kinase domain; fluorescein-labeled peptide, 50 mM Tris pH 7.4, peptide 0.25 or 0.5 μM): below the detection limit; also recorded: poor binding

Molecule: RLSSSPGKTMPTTQSFASDPKYA [MHR1, Ack1 MHR-derived synthetic peptide containing Y827]
- Phosphorylation of peptide by Mer (substrate quality) (Mer kinase): not a good substrate
